Earlier results, collected in patent US9173850B2, “4-methylpyrazole formulations” (RAPTOR PHARMACEUTICALS INC., priority 2009, dated 2015).

System: ethanol intolerance
Details: doses below 10 mg/kg; subjects with reduced or absent ALDH activity who have consumed alcohol

Cc1cn[nH]c1 [Formulation 4-MP, 4-Methylpyrazole]
Effectiveness in treating ethanol intolerance or symptoms of aldehyde accumulation: effective
